From paper PMC6150246, “Design, Synthesis and Preliminary Biological Evaluation of Novel Benzyl Sulfoxide 2-Indolinone Derivatives as Anticancer Agents” (Molecules : A Journal of Synthetic Chemistry and Natural …, 2017) come the findings set out here.

Series [1] concerns human breast carcinoma cell line MCF-7. Description: MTS cytotoxicity assay, MCF-7. Type of series: cell-based. To be noted: for IC50: Homo sapiens, MCF7, 48 h treatment. The source says: (§1) To investigate the relationship between anticancer activity and tyrosine kinase inhibitory activity, these compounds were further evaluated for in vitro cytotoxicity against five cancer cell lines (human cervical carcinoma cell line HeLa, human breast carcinoma cell line MCF-7, human liver carcinoma cell line HepG2, human tongue carcinoma cell line SCC-15, and human lung carcinoma A549) using MTS assay. Indo 5 was also used as a reference compound.
(§2) The five types of human cancer cell lines (HeLa, HepG2, MCF-7, SCC-15, and A549) were cultured aseptically using Dulbecco’s modified Eagle’s medium (DMEM) supplemented with 10% (v/v) fetal bovine serum (FBS) and penicillin (100 units mL^−1)/streptomycin ([…]), at pH 7.2 and 5% CO2 humidified atmosphere at 37 °C. After attaining 80% confluence, the cells were trypsinized with 0.25 trypsin–EDTA and diluted with media to a fixed number of cells.
(§3) Cytotoxic activity was assessed using the standard MTS method by using triplicate assay. The cells were seeded into 96-well plates containing the medium at the density of 4000–6000 cells/mL (100 μL/well). The compounds were dissolved in DMSO to the concentration of 100 mM and diluted in a culture medium to the concentrations needed. After 24 h, the cultured cells were treated with concentrations of synthesized compounds (3.125 μM to 100 μM for tumor cells) for 48 h. After 48 h of incubation, the supernatant was replaced by fresh medium (100 μL/well) and 10 μL MTS reagent ([3-(4,5-dimethylthiazol-2-yl)-5-(3-carboxymethoxyphenyl)-2-(4-sulfophenyl)-2H-tetrazolium, inner salt]) was added to each well. The plate was further incubated for 3 h at 37 °C in 5% CO2. The optical absorbance in individual wells was determined at 492 nm using a microplate reader. The inhibition rates were calculated by the following formula: Inhibition rate (%) = (ODnegative control − ODsample)/(ODnegative control − ODblank) × 100%
(§4) IC50 was calculated using GraphPad Prism Software (GraphPad Prism 5, La Jolla, CA, USA). For each concentration, at least three wells were performed to calculate the average parameter.

Series [2] has as its system human cervical carcinoma cell line HeLa. Description: MTS cytotoxicity assay, HeLa. The class given is cell-based. To be noted: for IC50: Homo sapiens, HeLa, 48 h treatment.
Source text: as §1, §2, §3, §4

Series [3] concerns human liver carcinoma cell line HepG2. Description: MTS cytotoxicity assay, HepG2. The class given is cell-based. As to conditions: for IC50: Homo sapiens, HepG2, 48 h treatment.
Source text: as §1, §2, §3, §4

The subject of series [4] is human tongue carcinoma cell line SCC-15. Description: MTS cytotoxicity assay, SCC-15. Type of series: cell-based. To be noted: for IC50: Homo sapiens, SCC-15, 48 h treatment.
Source text: as §1, §2, §3, §4

Series [5] relates to five human cancer cell lines (HeLa, HepG2, MCF-7, SCC-15, and A549). Description: MTS cytotoxicity assay, across the cancer cell line panel. Type of series: cell-based. As to conditions: for IC50: Homo sapiens, average over the cancer cell lines, read-out: average IC50 value (antitumor potential); for anticancer / antiproliferative activity over the cell line panel, in words: MTS, Indo 5 as reference.
Source text: as §1, §2, §3, §4

Series [6] concerns human lung carcinoma A549. Description: MTS cytotoxicity assay, A549. Type of series: cell-based. To be noted: Homo sapiens, A549, 48 h treatment.
Source text: as §1, §2, §3, §4

In the next series the target is tyrosine kinase. Description: Tyrosine kinase inhibitory activity assay (self-made ELISA kit). To be noted: tyrosine kinase tissue extract, 37 °C 30 min. Type of series: biochemical. The procedure: The 16 designed compounds were first evaluated for tyrosine kinase inhibitory activity using ELISA assay. Indo 5 was used as a reference compound. The kit was self-made and is a very effective and economical method for preliminary tyrosine kinase inhibitory activity evaluation.
The tyrosine kinase inhibitory activity assay was performed as described in the literature. Details of the experimental procedures are presented in Supplementary Materials associated with this article. The IC50 was calculated using GraphPad Prism Software (GraphPad Prism 5, La Jolla, CA, USA). For each concentration, at least three wells were performed to calculate the average parameter.
100μL to each well. The plate was covered with its lid, and incubated at 4℃ overnight (10-12 hours). Then it was washed with 200μL elution buffer once, and dried at 37℃ for 2 h. After that, it was washed with 10mM PBS once, dried at room temperature, and then stored at 4℃ […]
2.1.5. Groups: Blank control: 60μL 1×tyrosine kinase buffer + 50μL 1×tyrosine kinase buffer containing ATP; Negative control: 10μL 1×tyrosine kinase buffer + 50μL 1×tyrosine kinase buffer containing tissue extract + 50μL 1×tyrosine kinase buffer containing ATP; Positive control: 10μL 1×tyrosine kinase buffer containing L029 + 50μL 1×tyrosine kinase buffer containing tissue extract + 50μL 1×tyrosine kinase buffer containing ATP; Vehicle control: 10μL 1×tyrosine kinase buffer containing DMSO + 50μL 1×tyrosine kinase buffer containing tissue extract + 50μL 1×tyrosine kinase buffer containing ATP; Compounds to be screened: 10μL 1×tyrosine kinase buffer containing compounds to be tested + 50μL 1× tyrosine kinase buffer containing tissue extract + 50μL 1×tyrosine kinase buffer containing ATP. (First, L029 and the compounds were allowed to interact with the tyrosine kinase tissue extract at room temperature for 10 min in advance, and did the same to the Blank control and the Vehicle control, then 50μL 1×tyrosine kinase buffer containing ATP was added to […]
2.1.6. Tyrosine kinase inhibitory activity assay: 1×tyrosine kinase buffer was prepared by evenly mixing 1 mL 10× tyrosine kinase buffer with 9 mL DDW. The tissue extract was diluted with 1×tyrosine kinase buffer appropriately, mixed with it gently and evenly, and placed on ice. ATP stock solution was mixed with 1×tyrosine kinase buffer at the final concentration of 3mM , and placed on ice. The microplate was added in respective wells with the groups formulated as above, covered with the lid, and incubated at 37℃ for 30 min. The microplate was washed with 200μL elution buffer and tapped until the residual buffer was removed, and this procedure was repeated for five times. To each well, 100μL antibody diluent (antibody elution buffer diluted at a ratio of 1:2000) was added. The microplate was covered with the lid, and incubated at room temperature for 30 min. OPD solution was prepared by addition of 4 mg OPD into a mixture of 4.86 mL 0.1 mol/L citric acid solution and 5.14 mL 0.2 mol/L Na2HPO4 solution, followed by addition of 50μL 30% H202 to allow for complete dissolution, and then was protected from light. The antibody solution was […]
removed. The microplate was washed with 200μL elution buffer and tapped until the residual buffer was removed, and this procedure was repeated for five times. 100μL freshly prepared OPD was added, and reacted at room temperature light tight for precisely 7 min. Negative […]
100μL 2.5 N H2SO4 was added to terminate the reaction. OD
2.1.7. Sample screening: Samples were screened preliminarily by using triplicate assay. The effect of the samples on tyrosine kinase inhibitory activity was tested, and the inhibition rate was calculated. Inhibition rate (%)=(ODnegative control – ODsample) / (ODnegative control* – ODblank) × 100%; *While calculating inhibition rate of positive drugs, ODnegative control in the equation was replaced with ODvehicle control to exclude the influence of DMSO on tyrosine kinase activity. […]
2. S. Praveen Kumar, Jiri Gut, Rita C. […]

`O=C1Nc2ccccc2/C1=C/[S+]([O-])Cc1ccc(Br)cc1` (centres unmarked) [Compound 6j, (Z)-3-(((4-Bromobenzyl)sulfinyl)methylene)indolin-2-one] displayed a melting point of 195 to 196 °C. For the same compound, in series [1], the “activity against the MCF-7 cell line, in words” value is “good antitumor activity” and the IC50 amounted to 30.77 ± 0.29 µM. Besides, in series [2], half-maximal inhibition (IC50) required 24.1 ± 0.52 µM. Moreover, in series [3], the “activity against the HepG2 cell line, in words” value is reported as “considerable cytotoxic activity” and half-maximal inhibition (IC50) was put at 36.9 ± 0.49 µM. Moreover, in series [4], the “activity against the SCC-15 cell line, in words” value is reported as “considerable cytotoxic activity” and the IC50 came out at 34.9 ± 0.34 µM. In addition, in series [5], the IC50 was < 40 µM and the “anticancer / antiproliferative activity over the cell line panel, in words” value is listed as “comparable antiproliferative activity against four cancer cell lines compared with compound Indo 5”. The compound further gave an IC50 in series [6] of 44 ± 1.89 µM. Besides, at tyrosine kinase, it took 1.34 ± 0.03 µM to reach half-maximal inhibition (IC50).
Turning to `O=C1Nc2ccc(Br)cc2/C1=C/[S+]([O-])Cc1ccccc1` (centres unmarked) [Compound 6o, (Z)-3-((Benzylsulfinyl)methylene)-5-bromoindolin-2-one], the melting point was in the range of 200 to 201 °C. Moreover, in series [1], the “activity against the MCF-7 cell line, in words” value is “good antitumor activity” and the IC50 is 32.3 ± 0.77 µM. In series [2], this compound gave an IC50 of 18.2 ± 0.66 µM. The “activity against the HeLa cell line, in words” value in series [2] (Indo 5 as reference) is recorded as “stronger activity than Indo 5”. For the same compound, in series [3], the “activity against the HepG2 cell line, in words” value is reported as “considerable cytotoxic activity” and the IC50 is 54.4 ± 0.88 µM. Besides, in series [4], the “activity against the SCC-15 cell line, in words” value is given as “considerable cytotoxic activity” and it took 28.6 ± 1.58 µM to reach half-maximal inhibition (IC50). In series [5], the concentration for half-maximal inhibition (IC50) was < 40 µM and the “anticancer / antiproliferative activity over the cell line panel, in words” value is on record as “comparable antiproliferative activity against four cancer cell lines compared with compound Indo 5”. The same compound came in with an IC50 in series [6] of 54.9 ± 0.66 µM. At tyrosine kinase, the IC50 is 2.69 ± 0.29 µM.
For `O=C1Nc2ccccc2/C1=C/[S+]([O-])Cc1ccccc1Br` (centres unmarked) [Compound 6h, (Z)-3-(((2-Bromobenzyl)sulfinyl)methylene)indolin-2-one], the melting point was in the range of 198 to 199 °C. Further, the IC50 in series [1] was > 100 µM. Moreover, in series [2], the IC50 stood at 79.9 ± 1.57 µM. Moreover, in series [3], the midpoint of inhibition, the IC50, lay at 98.3 ± 2.04 µM. The IC50 in series [4] was > 100 µM. Further, the IC50 in series [6] is > 100 µM. On tyrosine kinase, this compound had an IC50 of 3.52 ± 0.15 µM.
`O=C1Nc2ccccc2/C1=C/[S+]([O-])Cc1cccc(F)c1` (centres unmarked) [Compound 6c, (Z)-3-(((3-Fluorobenzyl)sulfinyl)methylene)indolin-2-one] displayed a melting point of 186 to 187 °C. Also, in series [1], the “activity against the MCF-7 cell line, in words” value is listed as “good antitumor activity” and the IC50 was found to be 31.5 ± 0.82 µM. The compound also came in with an IC50 in series [2] of 24.4 ± 0.54 µM. This compound registered an IC50 in series [3] of 42 ± 0.7 µM. The compound also came in with an IC50 in series [4] of 49.9 ± 0.93 µM. Besides, the IC50 in series [6] is > 100 µM. On tyrosine kinase, the IC50 was found to be 9.32 ± 0.66 µM.
Regarding `O=C1Nc2ccccc2/C1=C/[S+]([O-])Cc1ccccc1Cl` (centres unmarked) [Compound 6e, (Z)-3-(((2-Chlorobenzyl)sulfinyl)methylene)indolin-2-one], the melting point is 202 to 203 °C. Moreover, the IC50 in series [1] is > 100 µM. In series [2], this compound had an IC50 of 70.9 ± 1.17 µM. Also, in series [3], inhibition was half-maximal at 96.83 ± 0.95 µM (IC50). For the same compound, the IC50 in series [4] was > 100 µM. The IC50 in series [6] was > 100 µM. Besides, the IC50 against tyrosine kinase came out at 5.09 ± 0.12 µM.
